# Data as given in ChEMBL document CHEMBL2203135, “Novel progesterone receptor modulators: 4-aryl-phenylsulfonamides” (Bioorg Med Chem Lett, 2012).
# Activity calls are given as the source filed them. The rule behind the calls is not given here.
# Assays:
# Assay type in all cases: functional
# [1] = target: T1, Estrogen receptor (Homo sapiens) (UniProt P03372); assay: Agonist activity at estrogen receptor by cellular reporter gene assay
# T1 sequence (whole entry): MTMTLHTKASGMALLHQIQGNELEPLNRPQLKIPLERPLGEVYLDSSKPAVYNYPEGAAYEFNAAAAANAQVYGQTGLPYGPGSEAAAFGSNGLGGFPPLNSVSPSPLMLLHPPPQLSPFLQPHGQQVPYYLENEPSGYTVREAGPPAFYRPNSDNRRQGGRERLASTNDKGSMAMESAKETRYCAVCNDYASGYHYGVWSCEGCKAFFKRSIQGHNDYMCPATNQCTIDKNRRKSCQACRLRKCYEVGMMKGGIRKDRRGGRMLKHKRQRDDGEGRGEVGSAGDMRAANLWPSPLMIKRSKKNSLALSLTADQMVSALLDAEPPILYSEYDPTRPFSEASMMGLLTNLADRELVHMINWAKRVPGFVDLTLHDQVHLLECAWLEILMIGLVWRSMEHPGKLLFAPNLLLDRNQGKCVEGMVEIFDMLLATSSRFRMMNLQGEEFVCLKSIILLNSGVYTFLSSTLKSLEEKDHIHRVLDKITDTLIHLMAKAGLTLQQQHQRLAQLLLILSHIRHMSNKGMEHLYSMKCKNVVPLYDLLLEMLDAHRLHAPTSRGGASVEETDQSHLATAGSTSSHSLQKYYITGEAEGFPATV
# Androgen receptor = target: T2, Androgen receptor (Homo sapiens, UniProt P10275); assay: Antagonist activity at androgen receptor by cellular reporter gene assay
# T2 sequence (P10275 whole entry): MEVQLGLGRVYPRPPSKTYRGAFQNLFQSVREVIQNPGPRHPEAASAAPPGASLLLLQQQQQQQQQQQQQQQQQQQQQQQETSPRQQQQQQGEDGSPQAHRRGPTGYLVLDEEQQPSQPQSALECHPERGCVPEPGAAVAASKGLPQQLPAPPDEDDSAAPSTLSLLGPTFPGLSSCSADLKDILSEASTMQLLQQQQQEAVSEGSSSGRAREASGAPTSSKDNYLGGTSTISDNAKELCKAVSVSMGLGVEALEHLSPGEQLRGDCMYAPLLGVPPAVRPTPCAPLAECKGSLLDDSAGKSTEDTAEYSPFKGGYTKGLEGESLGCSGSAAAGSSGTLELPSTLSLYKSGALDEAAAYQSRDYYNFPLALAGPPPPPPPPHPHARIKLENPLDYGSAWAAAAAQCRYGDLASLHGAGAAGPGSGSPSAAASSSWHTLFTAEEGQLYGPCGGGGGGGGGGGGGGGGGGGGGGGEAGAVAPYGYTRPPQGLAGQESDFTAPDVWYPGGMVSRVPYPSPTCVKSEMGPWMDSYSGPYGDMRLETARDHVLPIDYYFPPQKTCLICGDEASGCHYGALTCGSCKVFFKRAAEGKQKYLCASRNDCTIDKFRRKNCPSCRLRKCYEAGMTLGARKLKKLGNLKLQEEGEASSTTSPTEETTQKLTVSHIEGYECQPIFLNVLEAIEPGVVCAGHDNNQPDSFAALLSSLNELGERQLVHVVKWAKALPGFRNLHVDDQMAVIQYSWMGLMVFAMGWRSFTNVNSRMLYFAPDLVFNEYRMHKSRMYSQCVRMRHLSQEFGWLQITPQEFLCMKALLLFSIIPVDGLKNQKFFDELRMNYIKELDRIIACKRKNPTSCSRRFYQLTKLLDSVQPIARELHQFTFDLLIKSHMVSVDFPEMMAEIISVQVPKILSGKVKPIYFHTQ
# [2] = target: T3, Androgen receptor (Homo sapiens) (UniProt P10275); assay: Agonist activity at androgen receptor by cellular reporter gene assay
# T3 sequence (whole entry): T2 sequence (P10275 whole entry)
# [3] = target: T4, Mineralocorticoid receptor (Homo sapiens) (UniProt P08235); assay: Agonist activity at mineralocorticoid receptor by cellular reporter gene assay
# T4 sequence (whole entry): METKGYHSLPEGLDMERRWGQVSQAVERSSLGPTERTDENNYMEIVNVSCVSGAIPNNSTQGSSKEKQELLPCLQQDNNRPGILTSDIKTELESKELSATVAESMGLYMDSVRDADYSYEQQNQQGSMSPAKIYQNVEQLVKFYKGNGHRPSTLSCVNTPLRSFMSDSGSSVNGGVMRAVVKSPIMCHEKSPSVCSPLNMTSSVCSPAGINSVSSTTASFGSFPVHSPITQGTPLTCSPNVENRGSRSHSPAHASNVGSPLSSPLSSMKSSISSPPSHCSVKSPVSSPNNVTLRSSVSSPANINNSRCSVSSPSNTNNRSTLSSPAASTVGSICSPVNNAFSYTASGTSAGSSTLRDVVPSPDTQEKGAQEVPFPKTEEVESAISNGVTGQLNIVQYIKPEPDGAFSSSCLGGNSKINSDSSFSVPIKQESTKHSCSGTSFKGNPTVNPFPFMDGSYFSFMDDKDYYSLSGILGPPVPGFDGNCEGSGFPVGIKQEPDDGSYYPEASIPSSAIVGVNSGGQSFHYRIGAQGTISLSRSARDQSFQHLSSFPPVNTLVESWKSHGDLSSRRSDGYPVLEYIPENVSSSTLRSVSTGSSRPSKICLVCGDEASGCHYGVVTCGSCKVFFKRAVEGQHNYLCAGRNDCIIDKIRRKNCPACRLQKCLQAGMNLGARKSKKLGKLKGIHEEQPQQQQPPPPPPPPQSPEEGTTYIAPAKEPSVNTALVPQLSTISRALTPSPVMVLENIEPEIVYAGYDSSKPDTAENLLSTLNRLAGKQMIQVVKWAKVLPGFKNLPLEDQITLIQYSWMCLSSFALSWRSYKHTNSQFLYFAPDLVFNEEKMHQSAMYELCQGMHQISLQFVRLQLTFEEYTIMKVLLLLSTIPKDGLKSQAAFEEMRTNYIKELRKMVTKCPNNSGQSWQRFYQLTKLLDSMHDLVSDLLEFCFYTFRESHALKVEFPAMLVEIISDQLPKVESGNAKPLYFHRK
SMILES,Activity [1],IC50 (Androgen receptor),Activity [2],Activity [3]
CCS(=O)(=O)Nc1cc(F)c(-c2ccc(C#N)n2C)c(F)c1,inactive,100 nM,inactive,inactive
COC[C@]1(OC)CC[C@H]2[C@@H]3CCC4=CC(=O)CCC4=C3[C@@H](c3ccc(/C=N/O)cc3)C[C@@]21C [ASOPRISNIL],inactive,9 nM,inactive,inactive
